Data published in US20140178892A1, “SCREENING METHODS BASED ON VESICLE MOBILITY” (priority 2011, published 2014).
Values belong to the molecule of their own block, whether it stands above or below them.

What was measured:
[1] = tested on: dextran-labeled vesicles carrying MHC class II molecules in astrocytes; assay: Mobility of Alexa Fluor 546 dextran-labeled MHC class II vesicles in control and IFNγ activated astrocytes; type: cell-based; settings: for average vesicle maximal displacement / average vesicle track length: FIG. 4
Excerpt: (§1) Cell organelles are stained by commercially available dyes and/or by cell transfection. E.g. peptidergic secretory vesicles are labeled by cell transfection for the secretory peptide—pro-atrial natriuretic peptide tagged with emerald green fluorescent protein (ANP.emd; see Han et al., Proc Natl Acad Sci USA. 1999; 96:14577-14582; Krian et al., J. Neurosci. 2003; 23(5):1580-3.). Glutamatergic vesicles are stained by cell transfection for vesicular glutamate transporter 1 tagged with green fluorescent protein (VGLUT1-GFP). ATP containing vesicles are stained by incubation of cells in quinacrine dihydrochloride (1 μM, 15 min at room temperature) (Pangrsic et al., J Biol. Chem. 2007; 28; 282(39):28749-58) and endosomes/lysosomes by incubation of cells in LysoTracker Red DND-99 (200 nM, 5 min, RT, Invitrogen) (Potokar et al., Glia. 2010; 58(10):1208-19). To observe MHC class II expression cells are loaded with 0.1 mg/ml Alexa Fluor^546 dextran (Molecular Probes, Invitrogen) for 16 hours at 37° C.
(§2) Cell cultures are treated with the biologically active substances (i.e. constituents of sera, cerebrospinal fluid and other biologically relevant small inorganic and organic substances, other related substances and mixtures of these), or with the reference standard compound, which consists of FTY720 and FTY720-phosphate (FTY720-P) in ratio from 1:0.1 to 1:100, dissolved in cell culture medium for 10 min at 18-37° C. To observe augmentation of the MHC class II molecule expression, cells are treated with interferon gamma (IFN-γ) for 48 hours at 37° C. or any other stimulant of the antigen presentation.
(§3) Cell loaded coverslips are then rinsed with extracellular solution (consisting of 10 mM HEPES/NaOH (pH 7.2), 10 mM D-glucose, 130 mM NaCl, 2 mM CaCl2, 2 mM MgCl2, and 5 mM KCl) and observed by fluorescence microscopy at 63× or 100× magnification using 488 nm Ar—Ion laser excitation (for ANP.emd, VGLUT1-GFP and quinacrine dihydrochloride) or 543 nm He—Ne laser exitation (for LysoTracker Red DND-99, Alexa Fluor^546 dextran), and band-pass filtered at 505-530 nm or long-pass filtered at 560 nm. Time-lapse fluorescence images are acquired at 0.5-2 Hz for 1-10 minutes to monitor vesicle mobility.
Cells can be stimulated with adenosine triphosphate (ATP) or any other stimulus of exocytotic release to record vesicle mobility and secretion before and after cell stimulation.
(§4) Vesicle traffic is analyzed by particle tracking software previously described (Potokar et al.; Biochem Biophys Res Commun. 2005; 329(2):678-83).
(§5) Several mobility parameters are determined for variable time epochs typically lasting 10-60 seconds: step length (displacement of a vesicle within the two successive frames), speed, track length (TL; the total path traveled by a vesicle within the defined time epoch), the vesicle maximal displacement (MD; a measure for the net translocation of a vesicle within the defined time epoch; cf. Wacker et al., J Cell Sci 110 (Pt 13):1453-63), the angle of MD and the directionality index (DI; the ratio of MD to TL).
The example of vesicle mobility modulation in relation to the antigen presentation in IFNγ activated astrocytes. […] Therefore the mobility analysis of dextran-labeled vesicles can be applied to describe the modulated mobility of the vesicles carrying MHC class II molecules upon stimulation of antigen presentation in astrocytes. […]

[2] = tested on: secretory vesicles in transfected astrocytes expressing ANP.emd; assay: Mobility of fluorescently labeled (ANP.emd) secretory vesicles in cultured astrocytes, particle tracking of time-lapse fluorescence images; type: cell-based, rat; settings: for mean vesicle track length (TL) / mean vesicle maximal displacement (MD): 10 μM sphingosine, versus standard reference compound (Stand), 15 s epochs; for mean vesicle track length (TL): FIG. 2E; for mean vesicle maximal displacement (MD): FIG. 2F
Experimental: Cultured astrocytes, e.g. isolated as previously described by Schwartz & Wilson (Glia. 1992; 5(1):75-80) or any other cell type isolated from animal tissues or clonal cell lines derived from human or animal sources are seeded onto coverslips and maintained in an adequate cell cultured medium.
as §1
as §2, with “To observe augmentation of the MHC class II molecule expression, cells are treated with interferon gamma (IFN-γ) for 48 hours at 37° C. or any other stimulant of the antigen presentation.” left out
as §3, §4, §5
Example of the analysis of biologically active substances, such as sphingosine and immunoglobulin G (IgG) from human serum, on the mobility of secretory vesicles with respect to the effect of the standard compound, which is also the subject of the present invention. The example is shown in FIGS. 2E and F. The mobility of fluorescently labeled vesicles in transfected astrocytes expressing ANP.emd was analyzed by particle analyzing program Track2 and quantitative parameters of vesicle mobility were determined. […]

[3] = tested on: MHC class II molecules in astrocytes; assay: MHC class II expression in astrocytes by immunostaining and fluorescence microscopy; type: cell-based; settings: IFNγ treated versus control astrocytes; overlay with dextran loaded structures; FIG. 3
Excerpt: as §1, with “C. […]” for “C.”

[4] = cell stimulation with 1 mM ATP, control and IFNγ treated cells
[5] = IFNγ treated astrocytes versus non-treated control cells (Spon.)

Molecule: Nc1ncnc2c1ncn2[C@@H]1O[C@H](COP(=O)(O)OP(=O)(O)OP(=O)(O)O)[C@@H](O)[C@H]1O [ATP, adenosine triphosphate]
- average vesicle maximal displacement [1, 4]: reduces
- average vesicle track length [1, 4]: reduces

- mean vesicle maximal displacement (MD) [2]: significantly attenuates
- mean vesicle maximal displacement (MD) ([2]; listed as Sphingosine): strongly attenuates
Molecule: CCCCCCCCCCCCC/C=C/[C@@H](O)[C@@H](N)CO [sphingosine]
- mean vesicle track length (TL) [2]: significantly attenuates
- mean vesicle track length (TL) ([2]; listed as Sphingosine): strongly attenuates
- vesicle mobility ([2]; dependence on extracellular concentration, regions near the plasmalemma and deeper in the cytoplasm): dose-dependently attenuated

- average vesicle maximal displacement [1, 5]: significantly increase
B1: IFNγ: cytokine interferon gamma (protein, UniProt P01579 24-161, looked up)
Interferon gamma: QDPYVKEAENLKKYFNAGHSDVADNGTLFLGILKNWKEESDRKIMQSQIVSFYFKLFKNFKDDQSIQKSVETIKEDMNVKFFNSNKKKRDDFEKLTNYSVTDLNVQRKAIHELIQVMAELSPAAKTGKRKRSQMLFRG
- average vesicle track length [1, 5]: significantly increase
- mobility, in particular long-range mobility, of MHC class II-positive vesicles ([1]; astrocytes exposed to interferon-γ): enhanced
- expression of MHC class II molecules [3]: induces
